Experimental data as given in the NIST ThermoML archive (doi:10.1016/j.fluid.2016.03.013).

Experiment: xn = mol fraction of the nth substance listed
Conditions: for surface tension liquid-gas / mass density: draining crucible method; for viscosity / mass density: 101 kPa, Liquid; for viscosity: Draining crucible

[Al] [aluminum] + [Zn]
Conditions	mass density, x1 = 0.25 [kg/m3]	mass density, x1 = 0.51 [kg/m3]	mass density, x1 = 0.83 [kg/m3]	surface tension liquid-gas, x1 = 0.25 [mN/m]	surface tension liquid-gas, x1 = 0.51 [mN/m]	surface tension liquid-gas, x1 = 0.83 [mN/m]	viscosity, x1 = 0.25 [mPa·s]	viscosity, x1 = 0.51 [mPa·s]	viscosity, x1 = 0.83 [mPa·s]
873 K	5201	4204	–	802.1	830.8	–	1.917	1.633	–
923 K	5139	4138	2720	789.4	819.6	858.7	1.791	1.542	1.356
973 K	5089	4089	2680	779.3	806.5	848.1	1.696	1.448	1.271
1023 K	5011	3995	2530	763.8	795.8	836.9	1.643	1.405	1.222
